Values joined by “and” are separate entries in the source; they are usually repeats but may differ in a detail not shown here. Equal entries are not always repeated. Records with an inconclusive call do not appear.
Test system: CD8F1 mice, subcutaneous mammary adenocarcinoma, T/C%
Assay: NCI In Vivo Anticancer Drug Screen. Data for tumor model Mammary Adenocarcinoma CD8F1 (subcutaneous) in CD8F1
Details: higher = larger tumour
How it was run: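 Ratio of treated to vehicle-control outcome, based on either survival or tumor size, in mice bearing transplantable tumors given the test compound.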

[1] = endpoint: median tumor weight (est.), dose: 3.12 mg/kg/injection, schedule: Q07DX005 (ip), vehicle: saline with Tween-80
[2] = endpoint: median tumor weight (est.), dose: 6.25 mg/kg/injection, schedule: Q07DX005 (ip), vehicle: saline with Tween-80
[3] = endpoint: median tumor weight (est.), dose: 12.5 mg/kg/injection, schedule: Q07DX005 (ip), vehicle: saline with Tween-80
[4] = endpoint: median tumor weight change, dose: 62.5 mg/kg/injection, schedule: Q01DX001 (ip), vehicle: saline with Tween-80
[5] = endpoint: median tumor weight change, dose: 125.0 mg/kg/injection, schedule: Q01DX001 (ip), vehicle: saline with Tween-80
[6] = endpoint: median tumor weight (est.), dose: 25.0 mg/kg/injection, schedule: Q07DX005 (ip), vehicle: saline with Tween-80
[7] = endpoint: median tumor weight (est.), dose: 50.0 mg/kg/injection, schedule: Q07DX005 (ip), vehicle: saline with Tween-80
[8] = endpoint: median tumor weight (est.), dose: 0.5 mg/kg/injection, schedule: Q07DX005 (ip), vehicle: saline
[9] = endpoint: median tumor weight (est.), dose: 1.0 mg/kg/injection, schedule: Q07DX005 (ip), vehicle: saline
[10] = endpoint: median tumor weight (est.), dose: 4.0 mg/kg/injection, schedule: Q07DX005 (ip), vehicle: saline
[11] = endpoint: median tumor weight (est.), dose: 8.0 mg/kg/injection, schedule: Q07DX005 (ip), vehicle: saline

In the case of `Cc1cccc(-[n+]2noc(N)n2)c1`, the T/C (endpoint: median tumor weight change, dose: 62.0 mg/kg/injection, schedule: Q01DX001 (ip), vehicle: water) is reported as 80 % of control and the T/C (endpoint: median tumor weight change, dose: 125.0 mg/kg/injection, schedule: Q01DX001 (ip), vehicle: water) is reported as 51 % of control.

With `NC(N)=NC(N)=Nc1ccc(-c2ccc(N=C(N)N=C(N)N)cc2)cc1` the T/C [1] was 108 % of control, the T/C [2] was 118 % of control and the T/C [3] was 156 % of control.

In the case of `CNC(=O)n1c(N)nc(-c2ccccc2)c1-c1ccccc1`, the T/C (endpoint: median tumor weight change, dose: 31.25 mg/kg/injection, schedule: Q01DX001 (ip), vehicle: saline with Tween-80) is reported as 93 % of control, the T/C [4] is reported as 92 % of control and the T/C [5] is reported as 79 % of control.

For `CN(C)N=Nc1ccc(S(N)(=O)=O)cc1`, the T/C (endpoint: median tumor weight (est.), dose: 12.5 mg/kg/injection, schedule: Q07DX005 (ip), vehicle: Klucel (hydroxypropylcellulose) (HPC)) was 225 % of control and 117 % of control, the T/C (endpoint: median tumor weight (est.), dose: 50.0 mg/kg/injection, schedule: Q07DX005 (ip), vehicle: Klucel (hydroxypropylcellulose) (HPC)) was 213 % of control and 73 % of control and the T/C (endpoint: median tumor weight (est.), dose: 100.0 mg/kg/injection, schedule: Q07DX005 (ip), vehicle: Klucel (hydroxypropylcellulose) (HPC)) was 72 % of control and 93 % of control. For the same compound, the T/C (endpoint: median tumor weight (est.), dose: 200.0 mg/kg/injection, schedule: Q07DX005 (ip), vehicle: Klucel (hydroxypropylcellulose) (HPC)) was 48 % of control and the T/C (endpoint: median tumor weight (est.), dose: 400.0 mg/kg/injection, schedule: Q07DX005 (ip), vehicle: Klucel (hydroxypropylcellulose) (HPC)) was 22 % of control.

In the case of `O=c1s[se]c2ccccc12`, the T/C [1] is reported as 86 % of control, the T/C [2] is reported as 187 % of control and the T/C [3] is reported as 156 % of control. The T/C [6] was 82 % of control and the T/C [7] was 81 % of control.

With `Nc1ccc(S(N)(=O)=O)cc1` the T/C [4] was 112 % of control, the T/C [5] was 110 % of control and the T/C (endpoint: median tumor weight change, dose: 250.0 mg/kg/injection, schedule: Q01DX001 (ip), vehicle: saline with Tween-80) was 88 % of control. The T/C (endpoint: median tumor weight change, dose: 500.0 mg/kg/injection, schedule: Q01DX001 (ip), vehicle: saline with Tween-80) was 64 % of control and the T/C (endpoint: median tumor weight change, dose: 1000.0 mg/kg/injection, schedule: Q01DX001 (ip), vehicle: saline with Tween-80) was 124 % of control.

In the case of `CCN1C=C/C(=C\C=C/c2cc[n+](CC)c3ccccc23)c2ccccc21`, the T/C (endpoint: median tumor weight (est.), dose: 0.06 mg/kg/injection, schedule: Q07DX005 (ip), vehicle: saline) is reported as 123 % of control, the T/C (endpoint: median tumor weight (est.), dose: 0.06 mg/kg/injection, schedule: Q07DX005 (ip), vehicle: suspension in saline) is reported as 104 % of control and the T/C (endpoint: median tumor weight (est.), dose: 0.12 mg/kg/injection, schedule: Q07DX005 (ip), vehicle: saline) is reported as 88 % of control. For the same compound, the T/C (endpoint: median tumor weight (est.), dose: 0.12 mg/kg/injection, schedule: Q07DX005 (ip), vehicle: suspension in saline) was 83 % of control, the T/C (endpoint: median tumor weight (est.), dose: 0.25 mg/kg/injection, schedule: Q07DX005 (ip), vehicle: saline) was 150 % of control and the T/C (endpoint: median tumor weight (est.), dose: 0.25 mg/kg/injection, schedule: Q07DX005 (ip), vehicle: suspension in saline) was 119 % of control. For the same compound, the T/C [8] was 109 % of control, the T/C [9] was 101 % of control and the T/C (endpoint: median tumor weight (est.), dose: 1.0 mg/kg/injection, schedule: Q07DX005 (ip), vehicle: suspension in saline) was 75 % of control.

In the case of `C=C(C)[C@H]1Cc2c(ccc3c2O[C@@H]2COc4cc(OC)c(OC)cc4[C@@H]2C3=O)O1`, the T/C [10] is reported as 95 % of control, the T/C [11] is reported as 85 % of control and the T/C (endpoint: median tumor weight (est.), dose: 16.0 mg/kg/injection, schedule: Q07DX005 (ip), vehicle: saline) is reported as 102 % of control. The T/C (endpoint: median tumor weight (est.), dose: 32.0 mg/kg/injection, schedule: Q07DX005 (ip), vehicle: saline) was 95 % of control.

`S=P(N1CC1)(N1CC1)N1CC1` was tested, and the T/C (endpoint: mean tumor weight, dose: 1.0 mg/kg/injection, schedule: Q01DX009 (ip), vehicle: saline) was 45 % of control, the T/C (endpoint: mean tumor weight, dose: 2.0 mg/kg/injection, schedule: Q01DX009 (ip), vehicle: saline) was 7 % of control and the T/C (endpoint: mean tumor weight, dose: 4.0 mg/kg/injection, schedule: Q07DX005 (ip), vehicle: saline) was 354 % of control. The T/C (endpoint: mean tumor weight, dose: 4.0 mg/kg/injection, schedule: Q07DX006 (ip), vehicle: saline) was 20 % of control, the T/C (endpoint: mean tumor weight, dose: 4.0 mg/kg/injection, schedule: Q07DX007 (ip), vehicle: saline) was 1 % of control and the T/C (endpoint: mean tumor weight, dose: 8.0 mg/kg/injection, schedule: Q07DX005 (ip), vehicle: saline) was 597 % of control. For the same compound, the T/C (endpoint: mean tumor weight, dose: 8.0 mg/kg/injection, schedule: Q07DX006 (ip), vehicle: saline) was 3 % of control, the T/C (endpoint: mean tumor weight, dose: 8.0 mg/kg/injection, schedule: Q07DX007 (ip), vehicle: saline) was 6 % of control and the T/C (endpoint: mean tumor weight, dose: 16.0 mg/kg/injection, schedule: Q07DX005 (ip), vehicle: saline) was 61 % of control. The T/C [8] was 96 % of control, the T/C [9] was 157 % of control and the T/C (endpoint: median tumor weight (est.), dose: 2.0 mg/kg/injection, schedule: Q07DX005 (ip), vehicle: saline) was 159 % of control. For the same compound, the T/C [10] was 42 % of control and the T/C [11] was 15 % of control.

`COc1cc(NS(C)(=O)=O)ccc1Nc1c2ccccc2nc2ccccc12` was tested, and the T/C (endpoint: mean tumor weight (est.), dose: 4.0 mg/kg/injection, schedule: Q07DX004 (ip), vehicle: saline) was 158 % of control, the T/C (endpoint: mean tumor weight (est.), dose: 8.0 mg/kg/injection, schedule: Q07DX004 (ip), vehicle: saline) was 120 % of control and the T/C (endpoint: mean tumor weight (est.), dose: 16.0 mg/kg/injection, schedule: Q07DX004 (ip), vehicle: saline) was 109 % of control. For the same compound, the T/C (endpoint: mean tumor weight (est.), dose: 32.0 mg/kg/injection, schedule: Q07DX004 (ip), vehicle: saline) was 79 % of control, the T/C (endpoint: mean tumor weight, dose: 2.0 mg/kg/injection, schedule: Q05DX005 (ip), vehicle: saline) was 66 % of control and the T/C (endpoint: mean tumor weight, dose: 4.0 mg/kg/injection, schedule: Q05DX005 (ip), vehicle: saline) was 82 % of control. The T/C (endpoint: mean tumor weight, dose: 4.0 mg/kg/injection, schedule: Q07DX004 (ip), vehicle: saline) was 51 % of control, the T/C (endpoint: mean tumor weight, dose: 8.0 mg/kg/injection, schedule: Q05DX005 (ip), vehicle: saline) was 62 % of control and the T/C (endpoint: mean tumor weight, dose: 8.0 mg/kg/injection, schedule: Q07DX004 (ip), vehicle: saline) was 28 % of control. For the same compound, the T/C (endpoint: mean tumor weight, dose: 16.0 mg/kg/injection, schedule: Q05DX005 (ip), vehicle: saline) was 39 % of control, the T/C (endpoint: mean tumor weight, dose: 16.0 mg/kg/injection, schedule: Q07DX004 (ip), vehicle: saline) was 23 % of control and the T/C (endpoint: mean tumor weight, dose: 32.0 mg/kg/injection, schedule: Q07DX004 (ip), vehicle: saline) was 18 % of control. The T/C (endpoint: median tumor weight (est.), dose: 1.0 mg/kg/injection, schedule: Q01DX005 (ip), vehicle: Klucel (hydroxypropylcellulose) (HPC)) was 73 % of control, the T/C (endpoint: median tumor weight (est.), dose: 2.0 mg/kg/injection, schedule: Q01DX005 (ip), vehicle: Klucel (hydroxypropylcellulose) (HPC)) was 94 % of control and the T/C (endpoint: median tumor weight (est.), dose: 2.0 mg/kg/injection, schedule: Q07DX005 (ip), vehicle: Klucel (hydroxypropylcellulose) (HPC)) was 195 % of control. For the same compound, the T/C (endpoint: median tumor weight (est.), dose: 4.0 mg/kg/injection, schedule: Q01DX005 (ip), vehicle: Klucel (hydroxypropylcellulose) (HPC)) was 80 % of control, the T/C (endpoint: median tumor weight (est.), dose: 4.0 mg/kg/injection, schedule: Q04DX005 (ip), vehicle: Klucel (hydroxypropylcellulose) (HPC)) was 119 % of control and the T/C (endpoint: median tumor weight (est.), dose: 4.0 mg/kg/injection, schedule: Q07DX005 (ip), vehicle: Klucel (hydroxypropylcellulose) (HPC)) was 42 % of control and 65 % of control. The T/C (endpoint: median tumor weight (est.), dose: 8.0 mg/kg/injection, schedule: Q01DX005 (ip), vehicle: Klucel (hydroxypropylcellulose) (HPC)) was 59 % of control, the T/C (endpoint: median tumor weight (est.), dose: 8.0 mg/kg/injection, schedule: Q04DX005 (ip), vehicle: Klucel (hydroxypropylcellulose) (HPC)) was 35 % of control and the T/C (endpoint: median tumor weight (est.), dose: 16.0 mg/kg/injection, schedule: Q01DX001 (ip), vehicle: Klucel (hydroxypropylcellulose) (HPC)) was 93 % of control. The T/C (endpoint: median tumor weight (est.), dose: 16.0 mg/kg/injection, schedule: Q01DX005 (ip), vehicle: Klucel (hydroxypropylcellulose) (HPC)) was 38 % of control, the T/C (endpoint: median tumor weight (est.), dose: 16.0 mg/kg/injection, schedule: Q04DX005 (ip), vehicle: Klucel (hydroxypropylcellulose) (HPC)) was 17 % of control and the T/C (endpoint: median tumor weight (est.), dose: 32.0 mg/kg/injection, schedule: Q01DX001 (ip), vehicle: Klucel (hydroxypropylcellulose) (HPC)) was 35 % of control. The T/C (endpoint: median tumor weight (est.), dose: 32.0 mg/kg/injection, schedule: Q07DX005 (ip), vehicle: Klucel (hydroxypropylcellulose) (HPC)) was 3 % of control and 10 % of control and the T/C (endpoint: median tumor weight (est.), dose: 64.0 mg/kg/injection, schedule: Q01DX001 (ip), vehicle: Klucel (hydroxypropylcellulose) (HPC)) was 39 % of control.

In the case of `COc1ccc(OC)c(/C=C/c2ccnc3ccccc23)c1`, the T/C [3] is reported as 77 % of control, the T/C [6] is reported as 93 % of control and the T/C [7] is reported as 78 % of control. The T/C (endpoint: median tumor weight (est.), dose: 100.0 mg/kg/injection, schedule: Q07DX005 (ip), vehicle: saline with Tween-80) was 67 % of control, the T/C (endpoint: median tumor weight (est.), dose: 200.0 mg/kg/injection, schedule: Q07DX005 (ip), vehicle: saline with Tween-80) was 86 % of control and the T/C (endpoint: median tumor weight (est.), dose: 400.0 mg/kg/injection, schedule: Q07DX005 (ip), vehicle: saline with Tween-80) was 71 % of control.

Reference: PubChem BioAssay AID220 (DTP/NCI, 2004)
